Data: patent US11407749B2, “Heterocyclic compounds as immunomodulators” (Incyte Corporation, priority 2015, dated 2022)
pIC50: −log10 of the molar value.

Biological target: PD-1/PD-L1 protein/protein interaction (Homo sapiens (Human), UniProt Q9NZQ7)
Assay: PD-1/PD-L1 Homogeneous Time-Resolved Fluorescence (HTRF) Binding Assay
Details: recombinant human PD-L1 (19-238)-His and PD-1 (25-167)-Fc, 25° C., PBS pH 7.4
Procedure: Example A. PD-1/PD-L1 Homogeneous Time-Resolved Fluorescence (HTRF) Binding Assay
The assays were conducted in a standard black 384-well polystyrene plate with a final volume of 20 μL. Inhibitors were first serially diluted in DMSO and then added to the plate wells before the addition of other reaction components. The final concentration of DMSO in the assay was 1%. The assays were carried out at 25° C. in the PBS buffer (pH 7.4) with 0.05% Tween-20 and 0.1% BSA. Recombinant human PD-L1 protein (19-238) with a His-tag at the C-terminus was purchased from AcroBiosystems (PD1-H5229). Recombinant human PD-1 protein (25-167) with Fc tag at the C-terminus was also purchased from AcroBiosystems (PD1-H5257). PD-L1 and PD-1 proteins were diluted in the assay buffer and 10 μL was added to the plate well. Plates were centrifuged and proteins were preincubated with inhibitors for 40 minutes. The incubation was followed by the addition of 10 μL of HTRF detection buffer supplemented with Europium cryptate-labeled anti-human IgG (PerkinElmer-AD0212) specific for Fc and anti-His antibody conjugated to SureLight®-Allophycocyanin (APC, PerkinElmer-AD0059H). After centrifugation, the plate was incubated at 25° C. for 60 min. before reading on a PHERAstar FS plate reader (665 nm/620 nm ratio). Final concentrations in the assay were […], 10 nM PD-L1, 1 nM europium anti-human IgG and 20 nM anti-His-Allophycocyanin. IC50 determination was performed by fitting the curve of percent control activity versus the log of the inhibitor concentration using the GraphPad Prism 5.0 software.

PD-1/PD-L1 protein/protein interaction, sequence (Q9NZQ7 19-238): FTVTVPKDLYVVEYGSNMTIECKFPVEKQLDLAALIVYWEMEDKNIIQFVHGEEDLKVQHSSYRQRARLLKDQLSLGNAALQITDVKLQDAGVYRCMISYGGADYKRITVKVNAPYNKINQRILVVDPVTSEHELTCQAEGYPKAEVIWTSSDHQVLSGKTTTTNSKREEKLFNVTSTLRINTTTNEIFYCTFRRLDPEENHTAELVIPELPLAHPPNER

Row | Compound | pIC50
1 | Cc1c(-c2ccccc2)cccc1-c1cn2nc(CN(C)CCO)cnc2n1 [Example 8, 2-(methyl((6-(2-methylbiphenyl-3-yl)imidazo[1,2-b][1,2,4]triazin-2-yl)methyl)amino)ethanol] | 6.30 to 7.00
2 | Cc1c(-c2ccccc2)cccc1-c1cc2cc(CN3CCCC[C@H]3C(=O)O)ncn2c1 [Example 4, (2S)-1-{[6-(2-methylbiphenyl-3-yl)pyrrolo[1,2-c]pyrimidin-3-yl]methyl}piperidine-2-carboxylic acid] | 5.00 to 6.30
3 | Cc1c(-c2ccccc2)cccc1-c1nc2c(CC#N)cc(CNCCO)cn2n1 [Example 24, [6-{[(2-hydroxyethyl)amino]methyl}-2-(2-methylbiphenyl-3-yl)[1,2,4]triazolo[1,5-a]pyridin-8-yl]acetonitrile] | ≥ 7.00
4 | Cc1c(-c2ccccc2)cccc1-c1cc2cc(CN3CCCC[C@H]3C(=O)O)ccn2c1 [Example 3, (2S)-1-{[2-(2-methylbiphenyl-3-yl)indolizin-7-yl]methyl}piperidine-2-carboxylic acid] | 6.30 to 7.00
5 | Cc1c(-c2ccccc2)cccc1-c1nc2ccc(CN3CCCC[C@H]3C(=O)O)cn2n1 [Example 19, (2S)-1-{[2-(2-methylbiphenyl-3-yl)[1,2,4]triazolo[1,5-a]pyridin-6-yl]methyl}piperidine-2-carboxylic acid] | 6.30 to 7.00
6 | Cc1c(-c2ccccc2)cccc1-c1cn2nc(CNCC#N)cnc2n1 [Example 6, 2-((6-(2-methylbiphenyl-3-yl)imidazo[1,2-b][1,2,4]triazin-2-yl)methylamino)acetonitrile] | 6.30 to 7.00
7 | Cc1c(-c2ccccc2)cccc1-c1nc2cc(CN3CCCC[C@H]3C(=O)O)ccn2n1 [Example 17, (2S)-1-{[2-(2-methylbiphenyl-3-yl)[1,2,4]triazolo[1,5-a]pyridin-7-yl]methyl}piperidine-2-carboxylic acid] | 6.30 to 7.00
8 | N#Cc1c(-c2ccc3c(c2)OCCO3)cccc1-c1nc2c(C#N)cc(CNCCO)cn2n1 [Example 26, 2-[2-cyano-3-(2,3-dihydro-1,4-benzodioxin-6-yl)phenyl]-6-{[(2-hydroxyethyl)amino]methyl}[1,2,4]triazolo[1,5-a]pyridine-8-carbonitrile] | ≥ 7.00
9 | Cc1c(-c2ccccc2)cccc1-c1nc2cc(CNCCO)ccn2n1 [Example 16, 2-({[2-(2-methylbiphenyl-3-yl)[1,2,4]triazolo[1,5-a]pyridin-7-yl]methyl}amino)ethanol] | ≥ 7.00
10 | Cc1c(-c2ccccc2)cccc1-c1cn2cc(CNCCO)cc(C)c2n1 [Example 9, 2-((8-methyl-2-(2-methylbiphenyl-3-yl)imidazo[1,2-a]pyridin-6-yl)methylamino)ethanol] | 6.30 to 7.00
11 | N#CCc1cc(CNCCO)cn2nc(-c3cccc(-c4ccc5c(c4)OCCO5)c3C#N)nc12 [Example 27, 2-(8-(cyanomethyl)-6-{[(2-hydroxyethyl)amino]methyl}[1,2,4]triazolo[1,5-a]pyridin-2-yl)-6-(2,3-dihydro-1,4-benzodioxin-6-yl)benzonitrile] | ≥ 7.00
12 | Cc1c(-c2ccccc2)cccc1-c1nc2c(CCCC#N)cc(CNCCO)cn2n1 [Example 23, 4-[6-{[(2-hydroxyethyl)amino]methyl}-2-(2-methylbiphenyl-3-yl)[1,2,4]triazolo[1,5-a]pyridin-8-yl]butanenitrile] | ≥ 7.00
13 | Cc1c(-c2ccccc2)cccc1-c1cn2nc(CNCC(N)=O)cnc2n1 [Example 7, 2-((6-(2-methylbiphenyl-3-yl)imidazo[1,2-b][1,2,4]triazin-2-yl)methylamino)acetamide] | 6.30 to 7.00
14 | Cc1c(-c2ccccc2)cccc1-c1cn2nc(CN3CCCC[C@H]3C(=O)O)ccc2n1 [Example 14, (S)-1-((2-(2-methylbiphenyl-3-yl)imidazo[1,2-b]pyridazin-6-yl)methyl)piperidine-2-carboxylic acid] | 5.00 to 6.30
15 | Cc1c(-c2ccccc2)cccc1-c1nc2cc(CNCCO)nc(C)n2n1 [Example 20, 2-({[5-methyl-2-(2-methylbiphenyl-3-yl)[1,2,4]triazolo[1,5-c]pyrimidin-7-yl]methyl}amino)ethanol] | ≥ 7.00
16 | Cc1c(-c2ccccc2)cccc1-c1cn2cc(CNCCO)cc(Cl)c2n1 [Example 11, 2-((8-chloro-2-(2-methylbiphenyl-3-yl)imidazo[1,2-a]pyridin-6-yl)methylamino)ethanol] | 6.30 to 7.00
17 | COCCNc1cc(CNCCO)cn2nc(-c3cccc(-c4ccccc4)c3C)nc12 [Example 22, 2-({[8-[(2-methoxyethyl)amino]-2-(2-methylbiphenyl-3-yl)[1,2,4]triazolo[1,5-a]pyridin-6-yl]methyl}amino)ethanol] | 6.30 to 7.00
18 | Cc1c(-c2ccccc2)cccc1-c1cn2cc(CN3CCCC[C@H]3C(=O)O)cc(C)c2n1 [Example 10, (S)-1-((8-methyl-2-(2-methylbiphenyl-3-yl)imidazo[1,2-a]pyridin-6-yl)methyl)piperidine-2-carboxylic acid] | 6.30 to 7.00
19 | N#Cc1c(-c2ccc3c(c2)OCCO3)cccc1-c1nc2c(Cl)cc(CNCCO)cn2n1 [Example 25, 2-(8-chloro-6-{[(2-hydroxyethyl)amino]methyl}[1,2,4]triazolo[1,5-a]pyridin-2-yl)-6-(2,3-dihydro-1,4-benzodioxin-6-yl)benzonitrile] | ≥ 7.00
20 | Cc1c(-c2ccccc2)cccc1-c1cn2cc(CNCCO)ccc2n1 [Example 1, 2-({[2-(2-methylbiphenyl-3-yl)imidazo[1,2-a]pyridin-6-yl]methyl}amino)ethanol] | 6.30 to 7.00
21 | Cc1c(-c2ccccc2)cccc1-c1cn2nc(CNCCO)ccc2n1 [Example 15, 2-({[2-(2-methylbiphenyl-3-yl)imidazo[1,2-b]pyridazin-6-yl]methyl}amino)ethanol] | 6.30 to 7.00
22 | Cc1c(-c2ccccc2)cccc1-c1nc2ccc(CNCCO)cn2n1 [Example 18, 2-({[2-(2-methylbiphenyl-3-yl)[1,2,4]triazolo[1,5-a]pyridin-6-yl]methyl}amino)ethanol] | ≥ 7.00
23 | Cc1c(-c2ccccc2)cccc1-c1cn2nc(CNCCO)cnc2n1 [Example 5, 2-((6-(2-methylbiphenyl-3-yl)imidazo[1,2-b][1,2,4]triazin-2-yl)methylamino)ethanol] | ≥ 7.00
24 | Cc1c(-c2ccccc2)cccc1-c1cn2cc(CNCCO)cnc2n1 [Example 12, 2-({[2-(2-methylbiphenyl-3-yl)imidazo[1,2-a]pyrimidin-6-yl]methyl}amino)ethanol] | 6.30 to 7.00
25 | Cc1c(-c2ccccc2)cccc1-c1nc2c(Cl)cc(CNCCO)cn2n1 [Example 21, 2-({[8-chloro-2-(2-methylbiphenyl-3-yl)-[1,2,4]triazolo[1,5-a]pyridin-6-yl]methyl}amino)ethanol] | ≥ 7.00
26 | Cc1c(-c2ccccc2)cccc1-c1cn2cc(CNCCO)ncc2n1 [Example 13, 2-({[2-(2-methylbiphenyl-3-yl)imidazo[1,2-a]pyrazin-6-yl]methyl}amino)ethanol] | ≥ 7.00
27 | Cc1c(-c2ccccc2)cccc1-c1cc2cc(CNCCO)ccn2c1 [Example 2, 2-({[2-(2-methylbiphenyl-3-yl)indolizin-7-yl]methyl}amino)ethanol] | 6.30 to 7.00
